Tests used:
Test in all cases: relative viability (nuclei count vs DMSO), 5 days (fraction); higher = more cells survive
[1] = compound: Cc1ccc(Nc2nccc(N(C)c3ccc4c(C)n(C)nc4c3)n2)cc1S(N)(=O)=O [Pazopanib] + COc1cc2c(Oc3ccc(NC(=O)C4(C(=O)Nc5ccc(F)cc5)CC4)cc3F)ccnc2cc1OCCCN1CCOCC1 [Foretinib] (partner 0.25 µM)
Outline: (§1)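 Lung cancer cell lines were seeded in 1536-well plates and dosed by pin tool the next day, with either a single drug or a fixed anchor-drug dose combined with five library-drug doses (not always all listed) spaced in √10 steps. Five days later, one step fixed the cells and stained their nuclei (final 0.05% Triton X-100, 1% formaldehyde, 1 ug/ml Hoechst), and nuclei were counted on 4× images. Relative viability is the nuclei count in treated wells divided by the count in vehicle wells, and each value is the median of duplicate plates.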

[2] = compound: Cc1ccc(C(=O)Nc2ccc(CN3CCN(C)CC3)c(C(F)(F)F)c2)cc1C#Cc1cnc2cccnn12 [Ponatinib] + Cc1nc(Nc2ncc(C(=O)Nc3c(C)cccc3Cl)s2)cc(N2CCN(CCO)CC2)n1 [Dasatinib] (partner 0.075 µM)
Outline: as §1

[3] = compound: Cc1ccc(Nc2nccc(N(C)c3ccc4c(C)n(C)nc4c3)n2)cc1S(N)(=O)=O [Pazopanib] + C[C@@H](Oc1cc(-c2cnn(C3CCNCC3)c2)cnc1N)c1c(Cl)ccc(F)c1Cl [Crizotinib] (partner 1 µM)
Outline: as §1

[4] = compound: Cc1ccc(C(=O)Nc2ccc(CN3CCN(C)CC3)c(C(F)(F)F)c2)cc1C#Cc1cnc2cccnn12 [Ponatinib] + Cc1nc(NC(=O)N2CCC[C@H]2C(N)=O)sc1-c1ccnc(C(C)(C)C(F)(F)F)c1 [Alpelisib] (partner 2 µM)
Outline: as §1

Cell Line	relative viability ([1]; first compound 0.01 µM)	relative viability ([1]; first compound 0.03162 µM)	relative viability ([1]; first compound 0.1 µM)	relative viability ([1]; first compound 0.3162 µM)	relative viability ([1]; first compound 1 µM)	relative viability ([2]; first compound 0.002 µM)	relative viability ([2]; first compound 0.006325 µM)	relative viability ([2]; first compound 0.06325 µM)	relative viability ([2]; first compound 0.2 µM)	relative viability ([3]; first compound 0.01 µM)	relative viability ([3]; first compound 0.03162 µM)	relative viability ([3]; first compound 0.1 µM)	relative viability ([3]; first compound 0.3162 µM)	relative viability ([3]; first compound 1 µM)	relative viability ([4]; first compound 0.002 µM)	relative viability ([4]; first compound 0.006325 µM)	relative viability ([4]; first compound 0.06325 µM)	relative viability ([4]; first compound 0.2 µM)
NCI-H2170	1.06	1.08	1.01	1.02	1.07	0.46	0.591	0.561	0.491	1.21	1.32	1.26	1.15	1.14	0.804	0.843	0.892	0.811
NCI-H2228	0.938	1.01	0.764	0.792	0.993	0.372	0.515	0.462	0.393	0.51	0.446	0.402	0.496	0.366	0.677	0.788	1.13	0.75
NCI-H2347			0.934	1.21	0.843	0.302	0.301	0.404	0.362	0.885	0.643	0.662	0.691	0.842	1	1.1	1.18	1.02
NCI-H2405	0.997	1.13	1.11	1.11	1.08	0.17	0.206	0.187	0.202	0.825	0.863	0.842	0.915	0.713	0.86	0.922	0.98	0.666
NCI-H3122	0.999	0.932	1.01	0.992	0.996	0.773	0.85	0.838	0.809	0.263	0.247	0.273	0.278	0.348	0.883	0.86	0.863	0.909
PC-3 [JPC-3]	1.05	1.01	1.12	1.06	0.995	0.99	0.981	1.12	0.917	1.03	1.01	1.02	0.925	0.936	1	1.09	1.02	1.09
PC-14	0.962	0.972	1.11	1.03	1	0.244	0.24	0.292	0.248	0.95	0.893	0.968	0.891	0.935	0.856	0.906	1.05	0.879
RERF-LC-KJ	0.844	0.859	0.857	0.86	0.792	0.707	0.824	0.93	0.844	0.794	0.773	0.812	0.775	0.789	0.904	0.739	1.02	0.889
SK-LU-1	0.872	0.988	0.884	0.851	0.809	0.19	0.178	0.172	0.137	0.952	1.02	1.14	0.976	0.852	0.945	1.14	0.952	0.646
SK-MES-1	0.95	0.985	0.951	0.951	1.1	0.32	0.413	0.455	0.33	0.93	1	1.01	1.01	0.98	0.981	0.949	1.32	1.05
SW 1573	0.83	0.938	0.934	0.998	0.998	0.451	0.507	0.466	0.485	0.813	0.878	0.974	0.836	0.757	0.788	0.716	0.857	0.693

From the supplement of paper PMC10307832
